Results: patent US20170143006A1, “Composition and Use Thereof” (DUPONT NUTRITION BIOSCIENCES APS, priority 2014, published 2017)
Counter-ions that a name gives are not always drawn. Marks after values point to notes of the source that are not given here.

Legend:
[1] = pure form, white crystalline compound; cited from earlier work
ruminal fluid [2] = test: In vitro fermentation in buffered goat ruminal fluid, 24 h: gas production (methane content CH4); assay type: cell-based, Murciano-Granadina goats; details: for Gas production / mL CH4: after 24 hrs of incubation; for CH4/S / mL CH4/S / mL gas/S: per S (substrate in g DM), 24 hrs
Method: The gas content can be analysed in a Focus Gas Chromatograph (Thermo, Milan, Italy) equipped with a split/splitless injector and a flame ionization detector. The separation can be performed in a GS-Q capillary column (J&W Scientific, USA) (30 m×0.32 mm i.d.). The carrier gas may be Helium at a constant flow of 1 ml/min. The samples may be injected with a split ratio of 1/100. The initial oven temperature can be set at 50° C. held for 1 min and increased to 150 at 50° C./min and finally maintained at that temperature for 2 min. Both detector and injector temperatures can be set at 200° C. An external standard (41.21% CO2 and 58.79% CH4) may be employed for quantification of methane content in samples.
(§1) Twelve mature Murciano-Granadina goats of similar body weight (46.97±2.5 kg BW) during late lactation were randomly split into 4 groups. Each group was fed with the same total mixed ration for 10 days. Each group included 4 g/kg of one of four types of betaine additive: • 1—Non Coated Betaine BS1 (Betafin S1, natural betaine, DuPont) • 2—Coated Betaine B52 (see preparative example 3) • 3—Coated Betaine B60 (see preparative example 4) • 4—Uncoated Betaine HCl
(§2) After an adaptation period to the diets including betaine of 10 days, ruminal fluid was obtained by means of an oesophagus probe from all goats. Ruminal fluid from goats (3 per treatment) was obtained just before feeding, transported to the laboratory and immediately strained/filtered across/through four layers of cheesecloth and mixed into an Erlenmeyer flask.
(§3) The in vitro fermentation was carried out by the following incubation process; the squeezed rumen fluid (after filtration) was mixed with Goering and Van Soest (1970) buffer solution in a 1:4 (v/v) ratio at 39° C. under continuous flow of CO2.
(§4) Samples of 1 g of total ration (0.4 g concentrate and 0.6 g alfalfa hay) plus betaine (0.015 g of each type) were accurately weighed and mixed into 125 mL bottles (ANKOM RF equipment). 50 mL of the buffered rumen fluid was added to each bottle under CO2 flow.
(§5) Bottles were sealed and incubated at 39° C. for 24 h. Gas measurements were recorded every hour, while pH was measured at the start and right after 24 h; crude fiber, digestibility, CH4 and volatile fatty acid (VFA) concentrations were determined after 24 h of incubation.

ruminal fluid [3] = test: In vitro fermentation in buffered goat ruminal fluid, 24 h: ruminal parameters (DM, pH, residue, digestibility, N-NH3); assay type: cell-based, Murciano-Granadina goats; details: 24 h incubation
From the text: as §1, §2
The in vitro fermentation was carried out by the following incubation process; the squeezed rumen fluid (after filtration) was mixed with Goering and Van Soest (1970) buffer solution in a 1:4 (v/v) ratio at 39° C. under continuous flow of CO2. […]
Bottles were sealed and incubated at 39° C. for 24 h. Gas measurements were recorded every hour, while pH was measured at the start and right after 24 h; crude fiber, digestibility, CH4 and volatile fatty acid (VFA) concentrations were determined after 24 h of incubation. […]

ruminal fluid [4] = test: In vitro fermentation in buffered goat ruminal fluid, 24 h: determination of volatile fatty acids (VFA); assay type: cell-based, Murciano-Granadina goats; details: after 24 h of incubation
Method: Determination of VFA can be based on the method previously described by Jouany, J. P., Volatile fatty acid and alcohol determination in digestive contents, silage juices, bacterial cultures and anaerobic fermentor contents; Sciences des Aliments, 2: 131-144, 1982.
For instance, samples are filtered through 0.45 μm cellulose syringe filters. One hundred microliters of an internal standard solution (0.4 g of 4-metil-valeric acid diluted in 100 ml of deionised water) and 0.1 ml of a preservative (a mix of 5% H3PO4 and 1% CIHg in deionised water) are added to 0.8 ml of filtrate. One μL from each sample is injected in a gas chromatograph (Fisons 8000 series, Milan, Italy) equipped with a split/splitless injector and FID detector. The separation of SOFA (short chain fatty acids) is made in a DB-FFAP capillary column (30 m×0.25 mm×0.25 μm of film thickness) J&W Scientific (USA). The carrier gas is N2 at a constant pressure of 120 KPa. Both detector and injector temperatures are set at 245° C. The initial oven temperature is set at 115° C. held for 5 min and increased to 230 at 8.5° C./min and finally maintained at that temperature for 10 min. SOFA are identified by comparing their retention times with a standard (46975-U de Supelco®, PA, USA).
as §1, §2, §3, §4, §5

| SMILES | solubility in water and lower alcohols [1] | Gas production (ruminal fluid [2]) | mL CH4 (ruminal fluid [2]) | CH4/S (ruminal fluid [2]) | mL CH4/S (ruminal fluid [2]) | mL gas/S (ruminal fluid [2]) | N—NH3, mg/L (ammonia nitrogen) (ruminal fluid [3]) | Acetic acid (ruminal fluid [4]) | Butyric acid (ruminal fluid [4]) | Isobutyric acid (ruminal fluid [4]) | Isovaleric acid (ruminal fluid [4]) | N-Caproic acid (ruminal fluid [4]) | N-Valeric acid (ruminal fluid [4]) | Propionic acid (ruminal fluid [4]) | Total VFA (ruminal fluid [4]) |
| --- | --- | --- | --- | --- | --- | --- | --- | --- | --- | --- | --- | --- | --- | --- | --- |
| C[N+](C)(C)CC(=O)[O-] [betaine, trimethylglycine] | readily soluble |  |  |  |  |  |  |  |  |  |  |  |  |  |  |
| C[N+](C)(C)CC(=O)O [BHCl, Betaine HCl, reference compound] |  | 210.67 mL | 10.68^a mL | 437.48 J | 11.10^a mL | 218.70 mL | 51.13 mg/L | 63.90 | 14.63^a | 0.61 | 0.95 | 0.19 | 1.64 | 18.07^b | 47.13 mmol/L |
| C[N+](C)(C)CC(=O)[O-] [BS1, betaine] |  | 203.41 mL | 12.17^a mL | 498.54 J | 12.65^a mL | 210.33 mL | 45.04 mg/L | 63.92 | 15.26^a | 0.51 | 0.66 | 0.18 | 1.55 | 17.92^b | 43.46 mmol/L |
